Results as given in ChEMBL document CHEMBL5500419, “Discovery of GPR84 Fluorogenic Probes Based on a Novel Antagonist for GPR84 Bioimaging” (J Med Chem, 2024).

Biological target: G-protein coupled receptor 84 (Homo sapiens, UniProt Q9NQS5)
Sequence (Q9NQS5 whole entry): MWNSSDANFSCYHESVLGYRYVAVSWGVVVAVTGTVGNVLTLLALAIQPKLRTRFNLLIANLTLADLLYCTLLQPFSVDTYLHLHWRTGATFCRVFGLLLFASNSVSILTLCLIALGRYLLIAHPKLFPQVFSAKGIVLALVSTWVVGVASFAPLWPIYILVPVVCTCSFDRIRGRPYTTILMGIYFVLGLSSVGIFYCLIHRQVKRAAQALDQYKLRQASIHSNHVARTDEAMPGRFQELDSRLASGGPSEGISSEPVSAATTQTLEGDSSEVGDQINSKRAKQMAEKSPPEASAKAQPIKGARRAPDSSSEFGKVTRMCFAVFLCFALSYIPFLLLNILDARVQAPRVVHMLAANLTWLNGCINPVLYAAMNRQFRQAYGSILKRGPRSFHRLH
Description: Antagonist activity at human GPR84 expressed in HEK293 cells co-expressing Galpha16 assessed as inhibition of 6-OAU-induced calcium response

IC50: > 100 µM
SMILES: Cc1cc2ccccc2c2c1OP(=O)(O)Oc1c(C)cc3ccccc3c1-2
